# Source: BindingDB's records for doi:10.1002/cbic.201600598 (Griffith University, 2017)
# pIC50: −log10 of the molar value.
# Biological target: Carbonic anhydrase 2 (Homo sapiens, UniProt P00918)
# Assay: Fluorescence-Based CA II Binding Assay
# Settings: pH 7; 25 °C
# Method: The assay was performed according to a previously reported protocol.[Banerjee et al., Biochemistry, 44:3673-3682] DNSA stock solution was prepared at 1 mm in DMSO/water (1:1). CA II (1 mm) was added to the test probe (over a 0.1-100 mm concentration range) in HEPES buffer [HEPES (25 mm) with acetonitrile (10 %), pH 7.0] and mixed well. DNSA (0.1 mm) was added, and the resulting solution was incubated at RT for 10 min and then transferred into a black-wall 96-well plate (final volume […]). The fluorescence was measured with a Spectra Max 250 plate reader (Molecular Devices, Sunnyvale, CA, USA) at an excitation of 285 nm and emission of 465 nm at 25 °C.
row,pIC50,SMILES
1,6.54,"C#CCOCCOCCOCCOCCNC(=O)c1ccc(S(N)(=O)=O)cc1 [N-(3,6,9,12-Tetraoxapentadec-14-ynyl)-4-sulfamoylbenzamide (13)]"
2,< 2.30,"C#CCOCCOCCOCCOCCOCCC(=O)Nc1ccc(C(=O)c2ccc(NC(=O)CCNC(=O)c3ccccc3)cc2)cc1 [N-(4-{4-[3-(Phenylformamido)propanamido]benzoyl}phenyl)-4,7,10,13,16-pentaoxanonadec-18-ynamide (12)]"
3,6.67,"C#CCOCCOCCOCCOCCOCCC(=O)Nc1ccc(C(=O)c2ccc(NC(=O)CCNC(=O)c3ccc(S(N)(=O)=O)cc3)cc2)cc1 [N-[4-(4-{3-[(4-Sulfamoylphenyl)formamido]propanamido}benzoyl)phenyl]-4,7,10,13,16-pentaoxanonadec-18-ynamide (1)]"
4,6.22,"C#CCOCCOCCOCCOCCOCCC(=O)N[C@@H](Cc1cn(-c2ccc(C(=O)c3ccccc3)cc2)nn1)C(=O)NCCc1ccc(S(N)(=O)=O)cc1 [N-[(1S)-2-[1-(4-Benzoylphenyl)-1,2,3-triazol-4-yl]-1-{[2-(4-sulfamoylphenyl)ethyl]carbamoyl}ethyl]-4,7,10,13,16-pentaoxanonadec-18-ynamide (7)]"
5,< 2.30,"CCCOCCOCCOC#COCCOCCC(=O)N[C@@H](Cc1cn(-c2ccc(C(=O)c3ccccc3)cc2)nn1)C(=O)Nc1ccccc1 [N-[(1S)-2-[1-(4-Benzoylphenyl)-1H-1,2,3-triazol-4-yl]-1-(phenylcarbamoyl)ethyl]-4,7,10,13,16-pentaoxanonadec-8-ynamide (15)]"
6,5.81,"C#CCOCCOCCOCCOCCOCCC(=O)N[C@@H](Cc1cn(-c2ccc(C(=O)c3ccccc3)cc2)nn1)C(=O)Nc1ccc(S(N)(=O)=O)cc1 [N-[(1S)-2-[1-(4-Benzoylphenyl)-1H-1,2,3-triazol-4-yl]-1-[(4-sulfamoylphenyl)carbamoyl]ethyl]-4,7,10,13,16-pentaoxanonadec-18-ynamide (9)]"
7,5.51,"C#CCOCCOCCOCCOCCOCCC(=O)N[C@@H](Cc1cn(-c2ccc(C(=O)c3ccccc3)cc2)nn1)C(=O)NCc1ccc(S(N)(=O)=O)cc1 [N-[(1S)-2-[1-(4-Benzoylphenyl)-1H-1,2,3-triazol-4-yl]-1-{[(4-sulfamoylphenyl)methyl]carbamoyl}ethyl]-4,7,10,13,16-pentaoxanonadec-18-ynamide (8)]"
8,6.04,"C#CCOCCOCCOCCOCCOCCC(=O)Nc1ccc(C(=O)c2ccc(NC(=O)CCCC(=O)Nc3cccc(S(N)(=O)=O)c3)cc2)cc1 [N-{4-[4-(4,7,10,13,16-Pentaoxanonadec-18-ynamido)benzoyl]-phenyl}-N’-(3-sulfamoylphenyl)pentanediamide (5)]"
9,6.44,"C#CCOCCOCCOCCOCCOCCC(=O)Nc1ccc(C(=O)c2ccc(NC(=O)CCCC(=O)Nc3ccc(S(N)(=O)=O)cc3)cc2)cc1 [N-{4-[4-(4,7,10,13,16-Pentaoxanonadec-18-ynamido)benzoyl]-phenyl}-N’-(4-sulfamoylphenyl)pentanediamide (4)]"
10,6.30,"C#CCOCCOCCOCCOCCOCCC(=O)Nc1ccc(C(=O)c2ccc(NC(=O)CCCC(=O)NCCc3ccc(S(N)(=O)=O)cc3)cc2)cc1 [N-{4-[4-(4,7,10,13,16-Pentaoxanonadec-18-ynamido)benzoyl]-phenyl}-N’-[2-(4-sulfamoylphenyl)ethyl]pentanediamide (2)]"
11,5.91,"C#CCOCCOCCOCCOCCOCCC(=O)Nc1ccc(C(=O)c2ccc(NC(=O)CCCC(=O)NCc3ccc(S(N)(=O)=O)cc3)cc2)cc1 [N-{4-[4-(4,7,10,13,16-Pentaoxanonadec-18-ynamido)benzoyl]-phenyl}-N’-[(4-sulfamoylphenyl)methyl]pentanediamide (3)]"
12,6.10,"C#CCOCCOCCOCCOCCOCCC(=O)Nc1ccc(C(=O)c2ccc(NC(=O)c3ccc(S(N)(=O)=O)cc3)cc2)cc1 [N-{4-[4-(4-Sulfamoylbenzamido)benzoyl]phenyl}-4,7,10,13,16-pentaoxanonadec-18-ynamide (6)]"
13,5.69,"C#CCOCCOCCOCCOCCOCCC(=O)N[C@@H](Cc1cn(-c2ccc(C(=O)c3ccccc3)cc2)nn1)C(=O)Nc1cccc(S(N)(=O)=O)c1 [N-{(1S)-2-[1-(4-Benzoylphenyl)-1H-1,2,3-triazol-4-yl]-1-[(3-sulfamoylphenyl)carbamoyl]ethyl}-4,7,10,13,16-pentaoxanonadec-18-ynamide (10)]"
14,6.86,"C#CCOCCOCCOCCOCCOCCC(=O)N[C@@H](Cc1cn(-c2ccc(C(=O)c3ccccc3)cc2)nn1)C(=O)Nc1nnc(S(N)(=O)=O)s1 [N-{(1S)-2-[1-(4-Benzoylphenyl)-1H-1,2,3-triazol-4-yl]-1-[(5-sulfamoyl-1,3,4-thiadiazol-2-yl)carbamoyl]ethyl}-4,7,10,13,16-pentaoxanonadec-18-ynamide (11)]"
